Assay results as given in patent US20250154172A1, “PRMT5 INHIBITORS AND USES THEREOF” (Gilead Sciences, Inc., priority 2023, published 2025).

Tests used:
LU99 = test: Cell viability assay for additional cell lines: LU99; type: cell-based; conditions: for GI50: Homo sapiens, Lu-99, 216 h, 9-day treatment, average of n=2, read-out: MTAP-Deleted GI50
Experimental: (§1) Some Compounds of the Disclosure were tested in Calu-6 (Vendor: ATCC; Cat #HTB-56; Description: lung, adenocarcinoma), LU99 (Vendor: JCRB; Cat #JCRB0080; Description: non-small cell lung cancer), SW780 (Vendor: ATCC; Cat #CRL-2169; Description: bladder urothelial carcinoma), BxPC-3 (Vendor: ATCC; Cat #CRL-1687; Description: pancreatic adenocarcinoma), Panc-1 (Vendor: ATCC; Cat #CRL-1469 Description: pancreatic adenocarcinoma), AsPC-1 (Vendor: ATCC; Cat #CRL-1682; Description: pancreatic adenocarcinoma), Calu-6 (Vendor: ATCC; Cat #HTB-56; Description: non-small cell lung cancer), and U-2 OS (Vendor: ATCC; Cat #HTB-96; Description: osteosarcoma), cellular viability assays according to the general protocol. Seeded cells into 96-well plate and incubated overnight. Seeded an additional 10 wells per cell line in an additional 96-well plate for assessing Time Zero luminescence and incubated overnight. To treatment plates, added compounds into each well using Tecan D300e dispenser (nine three-fold dilutions starting at 10 μM) and incubated for 9 days. Time Zero (no compound treatment, luminescence assessed on day 1) and 9-day treatment (luminescence assessed on day 10) plates were assessed using the same CellTiter-Glo® substrate protocol. Thawed CellTiter-Glo® Buffer and lyophilized CellTiter-Glo® substrate and equilibrated to room temperature prior to use. The DMSO concentration was normalized to 0.137%. Transferred 100 ml CellTiter-Glo® Buffer into amber bottle containing CellTiter-Glo® substrate to reconstitute the lyophilized enzyme/substrate mixture. For Time Zero and 9-day treatment plates, removed all plating media. Added 100 μl fresh media/well. Added 100 μl CellTiter-Glo® Reagent per well. Mixed contents for 10 min on an orbital shaker to lyse cells. Recorded luminescence with Perkin Elmer Envision 2105 machine. Analyzed the data with GraphPad software. Potency fold difference is defined as GI50 (AMG193)/GI50 (Ca-47) for the MTAP^del cell line of interest. The structure of AMG193 is as follows.

SW780 = test: Cell viability assay for additional cell lines: SW780; type: cell-based; conditions: for GI50: Homo sapiens, 216 h, 9-day treatment, average of n=2, read-out: MTAP-Deleted GI50
Experimental: as §1

Sprague-Dawley Rat PK = type: in vivo; conditions: for BPR: Blood plasma ratio; for clearance / half-life / Vd: IV 0.33 mg/Kg; for clearance: plasma clearance, read-out: Observed CLp (converted); for Fold IVIVc: [Observed CLp/[BPR]/[Predicted Hepatocyte CL]; for half-life / Vd: plasma; for Vd: read-out: Vss
Text: The following abbreviations are defined as follows for table 5. BPR: Blood plasma ratio, CLp: plasma clearance.
Cell viability assay data for LU99, SW780, BxPC-3, Panc-1, AsPC-1, Calu-6 and U-2 OS for AMG-193 and example Ca-47 are provided in Table 4. The following abbreviations are defined as follows for table 5. BPR: Blood plasma ratio, CLp: plasma clearance. Fold IVIVc=[Observed CLp/[BPR]/[Predicted Hepatocyte CL]

BxPC-3 = test: Cell viability assay for additional cell lines: BxPC-3; type: cell-based; conditions: for GI50: Homo sapiens, 216 h, 9-day treatment, average of n=2, read-out: MTAP-Deleted GI50
Experimental: as §1

[1] = system: HCT116 MTAP-deleted cell lines; test: Cell viability assay for HCT116 isogenic pair (CellTitre-Glo, 7 days); type: cell-based; conditions: Homo sapiens, HCT-116, 168 h, 7 days of treatment, cell line not given
How it was run: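 HCT116 WT or MTAP-deleted cells, 100 per well, seeded onto pre-spotted PRMT5 inhibitor dose series in RPMI 1640/10% heat-inactivated FBS and grown 7 days at 37° C, 5% CO2. CellTiter-Glo luminescence then read; CC50 (nM) from 4-parameter logistic fit.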

U-2 OS = test: Cell viability assay for additional cell lines: U-2 OS; type: cell-based; conditions: Homo sapiens, U2OS, 216 h, 9-day treatment, average of n=2, read-out: MTAP-WT GI50
Experimental: as §1, with “Thawed CellTiter-Glo® Buffer and lyophilized CellTiter-Glo® substrate and equilibrated to room temperature prior to use. The DMSO concentration was normalized to 0.137%. Transferred 100 ml CellTiter-Glo® Buffer into amber bottle containing CellTiter-Glo® substrate to reconstitute the lyophilized enzyme/substrate mixture. For Time Zero and 9-day treatment plates, removed all plating media. Added 100 μl fresh media/well. Added 100 μl CellTiter-Glo® Reagent per well. Mixed contents for 10 min on an orbital shaker to lyse cells.” left out, “Potency fold difference is defined as GI50 (AMG193)/GI50 (Ca-47) for the MTAP^del cell line of interest. The structure of AMG193 is as follows.” left out

Panc-1 = test: Cell viability assay for additional cell lines: Panc-1; type: cell-based; conditions: for GI50: Homo sapiens, 216 h, 9-day treatment, average of n=2, read-out: MTAP-Deleted GI50
Experimental: as §1

Calu-6 = test: Cell viability assay for additional cell lines: Calu-6; type: cell-based; conditions: Homo sapiens, 216 h, 9-day treatment, average of n=2, read-out: MTAP-WT GI50
Experimental: as §1, with “Thawed CellTiter-Glo® Buffer and lyophilized CellTiter-Glo® substrate and equilibrated to room temperature prior to use. The DMSO concentration was normalized to 0.137%. Transferred 100 ml CellTiter-Glo® Buffer into amber bottle containing CellTiter-Glo® substrate to reconstitute the lyophilized enzyme/substrate mixture. For Time Zero and 9-day treatment plates, removed all plating media. Added 100 μl fresh media/well. Added 100 μl CellTiter-Glo® Reagent per well. Mixed contents for 10 min on an orbital shaker to lyse cells.” left out, “Potency fold difference is defined as GI50 (AMG193)/GI50 (Ca-47) for the MTAP^del cell line of interest. The structure of AMG193 is as follows.” left out

Row | SMILES | Potency fold difference (LU99; GI50 (AMG193)/GI50 (Ca-47)) | GI50 (LU99) [nM] | Potency fold difference (SW780; GI50 (AMG193)/GI50 (Ca-47)) | GI50 (SW780) [nM] | BPR (Sprague-Dawley Rat PK) | clearance (Sprague-Dawley Rat PK) [mL/min/kg] | Fold IVIVc (Sprague-Dawley Rat PK) [x] | half-life (Sprague-Dawley Rat PK) [h] | Vd (Sprague-Dawley Rat PK) [L/kg] | Potency fold difference (BxPC-3; GI50 (AMG193)/GI50 (Ca-47)) | GI50 (BxPC-3) [nM] | CC50 [1] [nM] | GI50 (U-2 OS) [nM] | Potency fold difference (Panc-1; GI50 (AMG193)/GI50 (Ca-47)) | GI50 (Panc-1) [nM] | GI50 (Calu-6) [nM]
1 | Nc1nc2cnc(C(=O)N3CCC[C@@H]4Oc5cc(C(F)(F)F)cc(F)c5[C@@H]43)cc2c2c1COC2 [Example Ca-47, (4-amino-1,3-dihydrofuro[3,4-c][1,7]naphthyridin-8-yl)((4aS,9bS)-9-fluoro-7-(trifluoromethyl)-3,4,4a,9b-tetrahydrobenzofuro[3,2-b]pyridin-1(2H)-yl)methanone] | 5 | 9 | 5.6 | 17 | 0.89 | 14.2 | 0.37 | 2.5 | 2.08 | 4.3 | 16 | 14 | 2300 | 5.9 | 87 | 1600
2 | Nc1nc2cnc(C(=O)N3CCOC[C@@H]3c3ccc(C(F)(F)F)cc3)cc2c2c1COC2 [AMG193, reference compound] | – | 45 | – | 96 | 0.95 | 37.7 | 1 | 1.1 | 1.82 | – | 68 | 69 | 9360 | – | 517 | 7000
